This is an account of results in EP2650284A1, “Heterocyclic derivatives as metabotropic glutamate receptor modulators” (Merz Pharma GmbH & Co. KGaA, priority 2012, dated 2013).

The target in assay [1] is T1, human metabotropic glutamate receptor mGluR5 (Homo sapiens, UniProt P41594).
T1 construct: expressed in transfected cells; host or cells: CHO-K1 (h5CHO), IPTG-inducible
Description: Cytosolic calcium studies with stably transfected cells (h5CHO), functional assay of mGluR5 receptors. In kind it is cell-based. The settings on record: for EC50: positive modulators, h5CHO cells preincubated with modulator, stimulated by an EC20 concentration of L-glutamate, read-out: hEC50. The method, boiled down: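 IPTG-induced h5CHO (CHO-K1 expressing human mGluR5) loaded with calcium dye; compounds (0.5% DMSO) added 5 min before agonist. NAM IC50 against L-quisqualate at ~EC80; PAM EC50 with EC20 L-glutamate. FLIPR fluorescence, max-minus-min, % of maximal response, logistic fit.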

A further assay deals with T2, mGluR5 receptors (Rattus norvegicus, UniProt P31424).
T2 construct: Primary astrocyte cultures are prepared from cortices of newborn rats; endogenous in cells; host or cells: primary cortical astrocytes from Sprague-Dawley rat pups (2-4 d old)
T2 sequence (P31424 21-1203): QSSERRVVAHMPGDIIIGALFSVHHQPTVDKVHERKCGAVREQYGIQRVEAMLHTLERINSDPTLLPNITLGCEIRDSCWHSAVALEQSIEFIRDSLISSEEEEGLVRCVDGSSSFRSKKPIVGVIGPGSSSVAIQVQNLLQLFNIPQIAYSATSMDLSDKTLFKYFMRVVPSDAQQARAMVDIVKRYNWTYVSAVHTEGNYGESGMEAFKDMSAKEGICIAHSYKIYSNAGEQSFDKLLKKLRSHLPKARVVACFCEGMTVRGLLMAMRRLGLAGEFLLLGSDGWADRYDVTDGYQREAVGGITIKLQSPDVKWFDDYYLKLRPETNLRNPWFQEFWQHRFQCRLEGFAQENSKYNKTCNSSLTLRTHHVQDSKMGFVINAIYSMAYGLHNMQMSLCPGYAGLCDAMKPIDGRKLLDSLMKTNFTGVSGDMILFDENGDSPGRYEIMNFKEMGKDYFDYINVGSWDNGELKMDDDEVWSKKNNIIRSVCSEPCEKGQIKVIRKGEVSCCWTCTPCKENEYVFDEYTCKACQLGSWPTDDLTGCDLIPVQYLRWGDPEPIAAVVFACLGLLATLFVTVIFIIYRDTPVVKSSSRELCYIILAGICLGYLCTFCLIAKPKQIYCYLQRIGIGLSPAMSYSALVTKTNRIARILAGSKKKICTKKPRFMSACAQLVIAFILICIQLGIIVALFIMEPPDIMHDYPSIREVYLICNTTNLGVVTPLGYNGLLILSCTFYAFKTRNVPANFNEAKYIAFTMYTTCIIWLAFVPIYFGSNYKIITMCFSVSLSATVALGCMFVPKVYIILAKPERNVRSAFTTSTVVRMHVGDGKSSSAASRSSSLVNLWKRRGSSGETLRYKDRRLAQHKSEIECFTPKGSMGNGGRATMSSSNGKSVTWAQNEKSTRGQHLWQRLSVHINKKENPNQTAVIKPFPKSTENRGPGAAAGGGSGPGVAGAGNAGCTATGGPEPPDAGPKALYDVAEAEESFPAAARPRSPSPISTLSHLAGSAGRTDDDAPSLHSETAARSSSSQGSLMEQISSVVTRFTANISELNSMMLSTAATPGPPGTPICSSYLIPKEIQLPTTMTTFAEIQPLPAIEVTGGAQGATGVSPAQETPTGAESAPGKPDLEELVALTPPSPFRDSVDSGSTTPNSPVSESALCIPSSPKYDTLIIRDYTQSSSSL
Description: Cytosolic calcium studies with astrocytes (FLIPR), functional assay of mGluR5 receptors. In kind it is cell-based. The method, boiled down: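 Rat cortical primary astrocytes at 14-15 DIV, loaded with Ca-sensitive dye for 2 h at RT, pH 7.3 buffer; FLIPR fluorescence after L-quisqualate (100 nM), antagonists pre-incubated 10 min. PAMs: quisqualate curves ± 10 µM modulator, or modulator curves at fixed 10-30 nM quisqualate. Max-min responses as % control, logistic fit.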

[2] abbreviates: Table A1, left shift of agonist EC50, dose response curves in the presence of 10 µM modulator or vehicle, h5CHO cells.
[3] abbreviates: Table A1, positive modulators, fixed concentration of quisqualate (normally 10-30 nM), read-out: rEC50.
[4] abbreviates: Table A1, left shift of quisqualate EC50 in the presence and absence of 10 µM modulator.

Where two headings read alike, the source gives them in different places.

T1 sequence (P41594 21-1212): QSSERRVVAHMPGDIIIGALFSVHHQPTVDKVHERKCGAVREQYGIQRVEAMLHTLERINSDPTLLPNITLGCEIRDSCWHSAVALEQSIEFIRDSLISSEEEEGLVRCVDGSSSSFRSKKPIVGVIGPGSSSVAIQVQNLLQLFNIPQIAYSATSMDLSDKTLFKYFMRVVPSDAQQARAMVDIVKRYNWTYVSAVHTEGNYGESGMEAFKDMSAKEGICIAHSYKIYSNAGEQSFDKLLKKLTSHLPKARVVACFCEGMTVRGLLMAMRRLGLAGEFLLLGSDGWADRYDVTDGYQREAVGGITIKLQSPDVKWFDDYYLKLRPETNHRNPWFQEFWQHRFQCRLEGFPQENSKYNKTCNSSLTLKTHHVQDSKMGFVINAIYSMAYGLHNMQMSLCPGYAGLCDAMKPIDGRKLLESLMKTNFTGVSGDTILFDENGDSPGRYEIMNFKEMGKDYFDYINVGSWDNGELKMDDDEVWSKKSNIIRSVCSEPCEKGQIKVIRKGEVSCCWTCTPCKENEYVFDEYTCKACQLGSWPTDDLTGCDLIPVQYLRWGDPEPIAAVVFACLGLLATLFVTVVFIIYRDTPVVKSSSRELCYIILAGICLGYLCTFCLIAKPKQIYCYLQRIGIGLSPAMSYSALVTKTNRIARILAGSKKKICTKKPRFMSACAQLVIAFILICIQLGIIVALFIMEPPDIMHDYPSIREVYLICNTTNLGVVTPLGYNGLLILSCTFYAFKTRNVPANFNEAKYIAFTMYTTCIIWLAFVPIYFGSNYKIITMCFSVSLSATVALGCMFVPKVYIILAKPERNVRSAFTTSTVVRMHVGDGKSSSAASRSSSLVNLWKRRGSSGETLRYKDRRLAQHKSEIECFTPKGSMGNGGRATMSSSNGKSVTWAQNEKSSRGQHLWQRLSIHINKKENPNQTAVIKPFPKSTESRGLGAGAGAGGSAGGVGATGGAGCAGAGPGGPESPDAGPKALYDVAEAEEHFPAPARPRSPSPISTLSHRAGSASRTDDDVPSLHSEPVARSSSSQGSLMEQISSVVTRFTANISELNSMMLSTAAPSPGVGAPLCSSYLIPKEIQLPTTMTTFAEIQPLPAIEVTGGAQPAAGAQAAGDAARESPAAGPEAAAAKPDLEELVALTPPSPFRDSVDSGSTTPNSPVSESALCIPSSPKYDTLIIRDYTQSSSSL

With `O=C1OC2(CCCc3ncc(C#Cc4ccccc4)cc32)CN1c1ccccc1` (racemic) [Example 12, (rac)-3-Phenyl-3'-(phenylethynyl)-7',8'-dihydro-6'H-spiro[oxazolidine-5,5'-quinolin]-2-one], the h left shift in assay [1] (setting [2]) was 1.9-fold. Moreover, the EC50 in assay [1] (Table A1) was 966 nM; at mGluR5 receptors (setting [3]), 856 nM.
With `CCCN1CCO[C@@H]2c3cc(C#Cc4ccccc4F)cnc3CC[C@@H]21` (racemic) [Example 18, (rac)-cis-9-((2-Fluorophenyl)ethynyl)-4-propyl-3,4,4a,5,6,10b-hexahydro-2H-[1,4]oxazino[2,3-f]quinoline], in assay [1] (setting [2]), the h left shift is given as 2.6-fold. Moreover, the results for the EC50 (in assay [1] (Table A1); at mGluR5 receptors (setting [3])) were 247 nM and 613 nM, respectively. In addition, the r left shift at mGluR5 receptors (setting [4]) is 2.6-fold.
Consider `CC(C)CN1CCO[C@@H]2c3cc(C#Cc4ccccc4)cnc3CC[C@@H]21` (racemic) [Example 23, (rac)-cis-4-Isobutyl-9-(phenylethynyl)-3,4,4a,5,6,10b-hexahydro-2H-[1,4]oxazino[2,3-f]quinoline], for which the h left shift in assay [1] (setting [2]) is given as 5.3-fold. For the same compound, the EC50 in assay [1] (Table A1) amounted to 4 nM; on mGluR5 receptors (setting [3]) it was 132 nM. On mGluR5 receptors (setting [4]), the r left shift is 11.7-fold.
On the same counts, the results for `CC(C)COC(=O)N1CCc2ncc(C#Cc3ccccc3)cc2C1` [Example 41, Isobutyl 3-(phenylethynyl)-7,8-dihydro-1,6-naphthyridine-6(5H)-carboxylate] are 2.2-fold, 146 nM, 4.36 nM and 1.2-fold.
`CN1CCO[C@@H]2c3cc(C#Cc4ccccc4)cnc3CC[C@@H]21` (racemic) [Example 13, (rac)-cis-4-Methyl-9-(phenylethynyl)-3,4,4a,5,6,10b-hexahydro-2H-[1,4]oxazino[2,3-f]quinoline]: the h left shift in assay [1] (setting [2]) is given as 1.7-fold. Also, the EC50 in assay [1] (Table A1) came to 425 nM. For the same compound, the r left shift on mGluR5 receptors (setting [4]) is 1.7-fold.
For the compound `O=C(N1CCc2ncc(C#Cc3ccccc3)cc2C1)N(CC(F)(F)F)CC(F)(F)F` [Example 49, 3-(Phenylethynyl)-N,N-bis(2,2,2-trifluoroethyl)-7,8-dihydro-1,6-naphthyridine-6(5H)-carboxamide], in assay [1] (setting [2]), the h left shift was 1.7-fold. Further, the r left shift at mGluR5 receptors (setting [4]) is on record as 2.3-fold. Also, the EC50 on mGluR5 receptors (setting [3]) stood at 11.8 nM.
As for `CN(C)S(=O)(=O)N1CCc2ncc(C#Cc3ccccc3)cc2C1` [Example 52, N,N-Dimethyl-3-(phenylethynyl)-7,8-dihydro-1,6-naphthyridine-6(5H)-sulfonamide], in assay [1] (setting [2]), the h left shift is 2.0-fold. The EC50 stood at 240 nM in assay [1] (Table A1) and 83.1 nM at mGluR5 receptors (setting [3]). At mGluR5 receptors (setting [4]), the r left shift is recorded as 1.8-fold.
Consider `CC(C)(C)C(=O)N1CCc2ncc(C#Cc3ccccc3)cc2C1` [Example 34, 2,2-Dimethyl-1-(3-(phenylethynyl)-7,8-dihydro-1,6-naphthyridin-6(5H)-yl)propan-1-one], for which, in assay [1] (setting [2]), the h left shift is given as 2.3-fold. Moreover, the EC50 in assay [1] (Table A1) stood at 171 nM; on mGluR5 receptors (setting [3]), 67.9 nM. For the same compound, the r left shift on mGluR5 receptors (setting [4]) is 2.8-fold.
As for `COC(=O)N1CC[C@H]2c3ncc(C#Cc4cccc(F)c4)cc3CC[C@H]21` [Example 72, (6aR,9aR)-Methyl 3-((3-fluorophenyl)ethynyl)-6,6a,9,9a-tetrahydro-5H-pyrrolo[2,3-h]quinoline-7(8H)-carboxylate], in assay [1] (setting [2]), the h left shift is on record as 1.7-fold. Further, the r left shift on mGluR5 receptors (setting [4]) is listed as 1.3-fold. Further, the EC50 at mGluR5 receptors (setting [3]) came out at 27.3 nM.
With `CN(C)C(=O)N1CCc2ncc(C#Cc3cccc(F)c3)cc2C1` [Example 45, 3-((3-Fluorophenyl)ethynyl)-N,N-dimethyl-7,8-dihydro-1,6-naphthyridine-6(5H)-carboxamide], the IC50 in assay [1] (Table A2, negative modulation, compounds added 5 minutes before L-quisqualic acid (~80% of the maximal signal), h5CHO cells, read-out: hIC50) turned out to be 114 nM; at mGluR5 receptors (Table A2, pre-incubated 10 minutes before L-quisqualate (100 nM), read-out: rIC50) it was 55.9 nM.
`CN(C)C(=O)N1CCO[C@@H]2c3cc(C#Cc4ccccc4)cnc3CC[C@@H]21` (racemic) [Example 27, (rac)-cis-N,N-Dimethyl-9-(phenylethynyl)-4a,5,6,10b-tetrahydro-2H [1,4]oxazino[2,3-f]quinoline-4(3H)-carboxamide]: the h left shift in assay [1] (setting [2]) is 2.4-fold. In addition, the EC50 in assay [1] (Table A1) came to 884 nM; at mGluR5 receptors (setting [3]), 427 nM. Also, the r left shift on mGluR5 receptors (setting [4]) is on record as 3.3-fold.
As for `CCCN1CCO[C@@H]2c3cc(C#Cc4ccccc4)cnc3CC[C@@H]21` (single isomer, unassigned) [Example 16, cis-9-(Phenylethynyl)-4-propyl-3,4,4a,5,6,10b-hexahydro-2H-[1,4]oxazino[2,3-f]quinoline], in assay [1] (setting [2]), the h left shift is 3.8-fold. The results for the EC50 (in assay [1] (Table A1); on mGluR5 receptors (setting [3])) were 47 nM and 453 nM, respectively. Also, the r left shift on mGluR5 receptors (setting [4]) is given as 6.0-fold.
On the same counts, the results for `CC(C)(C)OC(=O)N1CCc2ncc(C#Cc3ccccc3)cc2C1` [Example 42, tert-Butyl 3-(phenylethynyl)-7,8-dihydro-1,6-naphthyridine-6(5H)-carboxylate] are 3.1-fold, 281 nM, 131 nM and 1.9-fold.
With `COC(=O)N1CC[C@H]2CCc3cc(C#Cc4ccccc4)cnc3[C@H]21` (racemic) [Example 80, (rac)-cis-Methyl 7-(phenylethynyl)-2,3,3a,4,5,9b-hexahydro-1H-pyrrolo[3,2-h]quinoline-1-carboxylate], in assay [1] (Table A3 (SAMs / very weak PAMs), agonist EC50 shift with 10 µM modulator or vehicle, h5CHO cells), the h left shift is given as 1.5-fold. Further, the r left shift on mGluR5 receptors (Table A3 (SAMs / very weak PAMs), quisqualate EC50 shift with 10 µM modulator) is given as 1.8-fold. Further, the EC50 at mGluR5 receptors (Table A3, given in brackets where Ki is n.d., read-out: r EC50) is 35.5 nM.
Take `CC1(C(=O)N2CCc3ncc(C#Cc4ccccc4)cc3C2)COC1` [Example 36, (3-Methyloxetan-3-yl)(3-(phenylethynyl)-7,8-dihydro-1,6-naphthyridin-6(5H)-yl)methanone]: in assay [1] (setting [2]), the h left shift is recorded as 2.4-fold. The EC50 was 917 nM in assay [1] (Table A1) and 4040 nM on mGluR5 receptors (setting [3]). Also, the r left shift on mGluR5 receptors (setting [4]) is given as 2.7-fold.
On the same counts, the results for `O=S(=O)(N1CCCCC1)N1CCc2ncc(C#Cc3ccccc3)cc2C1` [Example 54, 3-(Phenylethynyl)-6-(piperidin-1-ylsulfonyl)-5,6,7,8-tetrahydro-1,6-naphthyridine] are 2.0-fold, 726 nM, 472 nM and 2.5-fold.
`CN1CC2(CCCc3ncc(C#Cc4ccccc4)cc32)OC1=O` (racemic) [Example 11, (rac)-3-Methyl-3'-(phenylethynyl)-7',8'-dihydro-6'H-spiro[oxazolidine-5,5'-quinolin]-2-one]: the h left shift in assay [1] (setting [2]) was 1.8-fold. Also, the EC50 came out at 53.7 nM in assay [1] (Table A1) and 58.6 nM on mGluR5 receptors (setting [3]). The r left shift on mGluR5 receptors (setting [4]) is given as 2.9-fold.
`O=C1OC2(CCCc3ncc(C#Cc4ccccc4)cc32)CN1C1CC1` (racemic) [Example 74, (rac)-3-Cyclopropyl-3'-(phenylethynyl)-7',8'-dihydro-6'H-spiro[oxazolidine-5,5'-quinolin]-2-one]: the h left shift in assay [1] (setting [2]) is listed as 1.6-fold. On mGluR5 receptors (setting [4]), the r left shift is reported as 1.5-fold. Moreover, the EC50 at mGluR5 receptors (setting [3]) was 10.1 nM.
